Test results taken from patent US20220370380A1, “EXERCISE-INDUCED HEMOLYSIS SUPPRESSANT AND COMPOSITION FOR SUPPRESSING/IMPROVING EXERCISE-INDUCED HEMOLYTIC ANEMIA” (AstaReal Co., Ltd., priority 2019, published 2022).
Where two headings read alike, the source gives them in different places.

What was measured:
[1] = test system: men's medium- and long-distance runners; assay: Confirmation test for suppression of exercise-induced hemolysis using astaxanthin; format: in vivo, human; details: compared with control group
Description: A confirmation test to confirm whether or not exercise-induced hemolysis that causes exercise-induced hemolytic anemia can be suppressed by orally taking a test food containing astaxanthin by a subject was conducted as follows.
Two types of test foods, a “capsules for astaxanthin group” containing a Haematococcus algae-derived pigment and a “capsules for control group” not containing the Haematococcus algae-derived pigment were prepared. Further, twenty-eight men's medium- and long-distance runners aged from 18 to 22 belonging to the athletic club of Tokai University as subjects were divided into two groups. Thirteen subjects were designated as the “astaxanthin group”, and fifteen subjects were designated as the “control group”. […]
Specifically, running training in the highlands was first conducted for 4 weeks, setting the period of running training in the highlands as “acclimatization period (Weeks 0 to 4)”, then blood samples were collected from the subjects of the “astaxanthin group” and the “control group”, to measure the number of erythrocytes (red blood cells), the hemoglobin content (amount of blood pigment; hemoglobin concentration), and the serum haptoglobin concentration. […] This test was conducted by observing the rate of change in the number of erythrocytes, the rate of change in the hemoglobin content (hemoglobin concentration), and the transition of the serum haptoglobin concentration from the start date to the end date of the observation period in each of the “astaxanthin group” and the “control group” thus measured. […]
The blood samples collected from the subjects of the “astaxanthin group” and the “control group” were treated with EDTA-2K to measure the number of erythrocytes using the sheath flow electrical resistance detection method. […] On the other hand, the collected blood samples were transferred to a tube containing EDTA-2Na and centrifuged to separate the plasma fraction, to measure the serum haptoglobin concentration using an ELISA kit for haptoglobin quantification (Quantikine Human Haptoglobin ELISA Kit (product code: DHAPGO), available from R&D Systems, Inc.). […]

[2] = cited from earlier work
[3] = test system: men's medium- and long-distance runners; assay: Confirmation test for suppression of hemolysis due to oxidative damage (urinary 8-OHdG and isoprostane production rate); format: in vivo, human
Excerpt: In order to confirm whether or not hemolysis due to oxidative damage is suppressed in the “astaxanthin group” of Example 1 (whether or not oxidative damage to erythrocytes (red blood cells) is suppressed), the production rate of 8-OHdG and isoprostane contained in the urine of the subjects of the “astaxanthin group” and the “control group” was investigated during the “test period” of Weeks 0 to 8 through the “acclimatization period (Weeks 0 to 4)” and the “observation period (Weeks 4 to 8)” of Example 1. The period of the confirmation test was set to the “test period” of Weeks 0 to 8 through the “acclimatization period (Weeks 0 to 4)” and the “observation period (Weeks 4 to 8)” because there was no causal relationship of whether or not hemolysis occurred due to oxidative damage with whether running training was performed in the highlands or flatlands.
Specifically, this test was performed as follows. Urine was collected from the subjects of the “astaxanthin group” and the “control group” at Week 0 (start date of test food intake), Week 4, and Week 8 (last day of test food intake), and the production rate of 8-OHdG and the production rate of isoprostane were measured. Thereafter, their averages were calculated, and then the transitions of the averages of the production rate of 8-OHdG and the production rate of isoprostane from Week 0 to Week 8 in each of the “astaxanthin group” and the “control group” thus calculated were observed.
The 8-OHdG concentration in the urine collected from the subjects of the “astaxanthin group” and the “control group” was measured using a New 8-OHdG Check ELISA (ELISA kit for 8-OHdG (product code: KOG-2005/E), available from NIKKEN SEIL Co., Ltd.) by an ELISA method. The production rate of 8-OHdG per body weight and time was calculated by the formula shown below.
Production rate of 8-OHdG (ng/kg/hr)={8-OHdG concentration in urine (ng/mL)×volume of urine collected (mL)}/{elapsed time since the last urination (h)×body weight of subject (kg)}
The isoprostane concentration in the urine collected from the subjects of the “astaxanthin group” and the “control group” was measured using a urinary isoprostane measurement ELISA kit (8-iso-PGF2a ELISA kit (product code: ADI-900-010), available from Enzo Life Sciences) by an ELISA method. The production rate of isoprostane per body weight and time was calculated by the formula shown below.
Production rate of isoprostane (ng/kg/hr)={isoprostane concentration in urine (ng/mL)×volume of urine collected (mL)}/{elapsed time since the last urination (h)×body weight of subject (kg)} […]

ordinary people = assay: Changes in number of erythrocytes and hemoglobin content of ordinary people (FIG. 3); format: in vivo, human; details: between before and after taking the test food
[4] = test system: men's medium- and long-distance runners; assay: Confirmation test for antioxidant capacity (serum total antioxidant capacity); format: in vivo, human; details: test period Week 0 to Week 8; astaxanthin group versus control group
Description: In order to confirm the antioxidant capacity in the “astaxanthin group” of Example 1, the concentrations of water-soluble antioxidants contained in the serum of the subjects of the “astaxanthin group” and the “control group” were measured during the “test period” of Weeks 0 to 8 through the “acclimatization period (Weeks 0 to 4)” and the “observation period (Weeks 4 to 8)” of Example 1. The period of the confirmation test was set to the “test period” of Weeks 0 to 8 through the “acclimatization period (Weeks 0 to 4)” and the “observation period (Weeks 4 to 8)” because there was no causal relationship of the antioxidant capacity with whether running training was performed in the highlands or flatlands.
Specifically, this test was performed as follows. The blood samples were collected from the subjects of the “astaxanthin group” and the “control group” at Week 0 (start date of test food intake), Week 4, and Week 8 (last day of test food intake), to measure the concentrations of water-soluble antioxidants in serum and measure the total antioxidant capacity. Thereafter, the average was calculated, and the transition of the average of the total antioxidant capacity from Week 0 to Week 8 in each of the “astaxanthin group” and the “control group” thus calculated was observed. […]

[5] = literature: Takahashi et al. 2004; cited from earlier work

## CC1=C(/C=C/C(C)=C/C=C/C(C)=C/C=C/C=C(C)/C=C/C=C(C)/C=C/C2=C(C)C(=O)C(O)CC2(C)C)C(C)(C)CC(O)C1=O (stereo not drawn) [astaxanthin, 3,3′-dihydroxy-β,β-carotene-4,4′-dione]
[1]; astaxanthin 12 mg/day oral (free form), observation period Weeks 4 to 8, running training in flatlands
  rate of change in the number of erythrocytes during the observation period: high
[1]; astaxanthin 12 mg/day oral, Week 4
  serum haptoglobin concentration on the start date of the observation period: almost no difference
[1]; astaxanthin 12 mg/day oral, Week 8
  serum haptoglobin concentration on the end date of the observation period: extremely high
[1]; astaxanthin 12 mg/day oral, observation period Weeks 4 to 8, running training in flatlands
  rate of change in the hemoglobin content (hemoglobin concentration) during the observation period: also high
[2]
  antioxidant activity relative to vitamin E: 1000 times
[2]; listed as Astaxanthin
  antioxidant activity relative to vitamin E: about 1,000 times
[2]; relative to β-carotene
  antioxidant activity relative to β-carotene: about 40 times
[3]; Week 0, astaxanthin group compared with control group
  average of measured values of the production rate of isoprostane (urine): low
[3]; Week 4 and Week 8, astaxanthin group versus control group
  average of measured values of the production rate of isoprostane (urine): no difference observed
[3]; after intake compared with before intake (Week 0), within astaxanthin group
  average production rate (urine marker), comparison between before and after taking the test food: increased after intake
[3]; test period Week 0 to Week 8, astaxanthin group versus control group
  average of measured values of the production rate of 8-OHdG (urine): no significant difference
Ordinary people
  hemoglobin content (hemoglobin concentration): no significant difference
  number of erythrocytes: no significant difference
[4]
  average of measured values of the total antioxidant capacity (serum): no significant difference
[5]
  mutagenicity: no mutagenicity observed
